{"source": "patent US20210251981A1", "about": "“SOLID FORMS OF BERBERINE URSODEOXYCHOLATE AND COMPOSITIONS AND METHODS THEREOF” (SHENZHEN HIGHTIDE BIOPHARMACEUTICAL, LTD., priority 2017, published 2021)", "key": {"[1]": {"assay": "1-Month stability evaluation (XRPD and HPLC after storage)", "format": "physicochemical", "settings": "for Purity (Area %): HPLC; for Crystal Form: XRPD", "description": "(§1) XRPD patterns were collected on a PANalytical X-ray powder diffractometer fitted with an automatic sample changer, a theta-theta goniometer, automatic beam divergence slit and a PSD Vantec-1 detector. The X-ray tube voltage and amperage were set to 45 kV and 40 mA respectively. The diffractometer was aligned and a calibration check performed using a corundum reference material on the day of data collection. Data were collected and analyzed by the software Data Viewer.\n(§2) Agilent 1260/1100 HPLC was utilized and detailed chromatographic conditions for purity and solubility measurement are listed in Table 5.\nSamples of Form A of BBR-UDCA, Form D of BBR-UDCA and BBR-UDCA (mixed crystals without quality control on crystal forms) were stored 25° C./60% RH (sealed) and 40° C./75% RH (sealed) for one month."}, "[2]": {"assay": "Equilibrium aqueous solubility", "format": "physicochemical", "experimental": "as §2\nAbout 5 mg of each crystal type of solid (Form A of BBR-UDCA and Form D of BBR-UDCA, respectively) was weighed in separate 3-mL bottle, suspended into 1 mL of water, slurried (1000 rpm) at RT for 24 hours, and then centrifuged at 10000 rpm for 3 minutes. The resulting residual solids were characterized by XRPD and supernatant was measured by HPLC-DAD/ELSD. Due to the poor UV absorption of UDCA, DAD was used as the detector only for BBR and ELSD was used for both BBR and UDCA. […] The reason of the deviation from 1:1 may be that after HTD 1801 dissolving in water, a small amount of disproportionation occurred and it was hardly detected by XRPD due to its limited amount."}, "[3]": {"assay": "Accelerated stability evaluation (XRPD and HPLC after storage)", "format": "physicochemical", "settings": "for Purity (Area %): HPLC; for Form: XRPD; for decrease of HPLC purity: HPLC-DAD, under all three conditions", "description": "as §1, §2\nTo evaluate the physical and chemical stability of Form A of BBR-UDCA and Form D of BBR-UDCA, samples were stored at 80° C. (sealed) for 24 hours, 25° C./60% RH (open) and 40° C./75% RH (open) for one week. […] The physical stability of Form A was better than Form D based on the 1-week stability results at 25° C./60% RH (open) and 40° C./75% RH (open)."}, "[4]": {"assay": "Hygroscopicity evaluation by Dynamic Vapor Sorption (DVS)", "format": "physicochemical", "settings": "for water uptake: DVS", "experimental": "DVS was measured via a SMS (Surface Measurement Systems) DVS Intrinsic.\nDynamic Vapor Sorption (DVS) isotherm plot of Form A of BBR-UDCA was collected at 25° C. with the various humidity, 60% RH-95% RH-0% RH-95% RH (60% RH was the ambient humidity). As the DVS plot shown, a step-like weight loss was observed between 10% RH and 20% RH.\nTo investigate the hygroscopicity of Form D of BBR-UDCA, DVS isotherm plot of Form D was collected at 25° C. between 0 and 95% RH."}, "[5]": {"settings": "air exposure"}, "[6]": {"settings": "1 Month, 25° C./60% RH (sealed)"}, "[7]": {"settings": "1 Month, 40° C./75% RH (sealed)"}, "[8]": {"settings": "water, RT, 24 hours, ELSD as detector"}, "[9]": {"settings": "1 week, 25° C./60% RH (open), * = degree of crystallinity decreased"}, "[10]": {"settings": "1 week, 40° C./75% RH (open), * = degree of crystallinity decreased"}}, "note": "Like-named read-outs stand apart in the source and are kept apart here.", "data": [{"smiles": "COc1ccc2cc3[n+](cc2c1OC)CCc1cc2c(cc1-3)OCO2.C[C@H](CCC(=O)[O-])[C@H]1CC[C@H]2[C@@H]3[C@@H](O)C[C@@H]4C[C@H](O)CC[C@]4(C)[C@H]3CC[C@]12C", "note": "[Form A, berberine ursodeoxycholate]", "values": [{"measurement": "Purity/Initial purity (%)", "setting": "[1]; [6]", "result": 99.8, "unit": "%"}, {"measurement": "Purity (Area %)", "setting": "[1]; [6]", "result": 99.3, "unit": "Area %"}, {"measurement": "Crystal Form", "setting": "[1]; [6]", "result": "Form A"}, {"measurement": "Purity/Initial purity (%)", "setting": "[1]; [7]", "result": 99.9, "unit": "%"}, {"measurement": "Purity (Area %)", "setting": "[1]; [7]", "result": 99.4, "unit": "Area %"}, {"measurement": "Crystal Form", "setting": "[1]; [7]", "result": "Form A"}, {"measurement": "Purity (Area %)", "setting": "[1]; Initial", "result": 99.5, "unit": "Area %"}, {"measurement": "Form of residual solid", "setting": "[2]; water, RT, 24 hours slurry, XRPD, listed as Type A", "result": "Type A"}, {"measurement": "Solubility of BBR", "setting": "[2]; water, RT, 24 hours, DAD as detector", "result": 350, "unit": "µg/mL"}, {"measurement": "Solubility of BBR", "setting": "[2]; [8]", "result": 330, "unit": "µg/mL"}, {"measurement": "Solubility of UDCA", "setting": "[2]; [8]", "result": 420, "unit": "µg/mL"}, {"measurement": "Purity/Initial purity (%)", "setting": "[3]; 1 week, 25° C./60% RH (open)", "result": 99.9, "unit": "%"}, {"measurement": "Purity (Area %)", "setting": "[3]; 1 week, 25° C./60% RH (open)", "result": 99.4, "unit": "Area %"}, {"measurement": "Form", "setting": "[3]; [9]", "result": "Form A"}, {"measurement": "Purity/Initial purity (%)", "setting": "[3]; 1 week, 40° C./75% RH (open)", "result": 99.8, "unit": "%"}, {"measurement": "Purity (Area %)", "setting": "[3]; 1 week, 40° C./75% RH (open)", "result": 99.4, "unit": "Area %"}, {"measurement": "Form", "setting": "[3]; [10]", "result": "Form A"}, {"measurement": "Purity/Initial purity (%)", "setting": "[3]; 24 hours, 80° C. (sealed)", "result": 99.8, "unit": "%"}, {"measurement": "Purity (Area %)", "setting": "[3]; 24 hours, 80° C. (sealed)", "result": 99.3, "unit": "Area %"}, {"measurement": "Form", "setting": "[3]; 24 hours, 80° C. (sealed)", "result": "Form A"}, {"measurement": "decrease of HPLC purity", "setting": "[3]", "result": "no HPLC purity decrease"}, {"measurement": "Purity (Area %)", "setting": "[3]; Initial", "result": 99.5, "unit": "Area %"}, {"measurement": "crystal-form change after DVS (XRPD)", "setting": "[4]; 25° C., 60% RH-95% RH-0% RH-95% RH", "result": "no crystal-form change"}, {"measurement": "water uptake", "setting": "[4]; 25° C./80% RH", "result": 9.9, "unit": "%"}]}, {"smiles": "COc1ccc2cc3[n+](cc2c1OC)CCc1cc2c(cc1-3)OCO2.C[C@H](CCC(=O)[O-])[C@H]1CC[C@H]2[C@@H]3[C@@H](O)C[C@@H]4C[C@H](O)CC[C@]4(C)[C@H]3CC[C@]12C", "note": "[Form D, berberine ursodeoxycholate]", "values": [{"measurement": "Purity/Initial purity (%)", "setting": "[1]; [6]", "result": 97.6, "unit": "%"}, {"measurement": "Purity (Area %)", "setting": "[1]; [6]", "result": 97.2, "unit": "Area %"}, {"measurement": "Crystal Form", "setting": "[1]; [6]", "result": "Form D"}, {"measurement": "Purity/Initial purity (%)", "setting": "[1]; [7]", "result": 95.1, "unit": "%"}, {"measurement": "Purity (Area %)", "setting": "[1]; [7]", "result": 94.7, "unit": "Area %"}, {"measurement": "Crystal Form", "setting": "[1]; [7]", "result": "Form D"}, {"measurement": "crystal-form change (XRPD)", "setting": "[1]; 25° C./60% RH (sealed) and 40° C./75% RH (sealed), one month", "result": "No crystal-form change"}, {"measurement": "Purity (Area %)", "setting": "[1]; Initial", "result": 99.6, "unit": "Area %"}, {"measurement": "Solubility of UDCA", "setting": "[2]", "result": 520, "unit": "µg/mL"}, {"measurement": "molar ratio (BBR:UDCA)", "setting": "[2]", "result": "0.93:1"}, {"measurement": "Purity/Initial purity (%)", "setting": "[3]; 1 week, 25° C./60% RH (open)", "result": 99.3, "unit": "%"}, {"measurement": "Purity (Area %)", "setting": "[3]; 1 week, 25° C./60% RH (open)", "result": 98.9, "unit": "Area %"}, {"measurement": "Form", "setting": "[3]; [9]", "result": "Form D*"}, {"measurement": "Purity/Initial purity (%)", "setting": "[3]; 1 week, 40° C./75% RH (open)", "result": 98.3, "unit": "%"}, {"measurement": "Purity (Area %)", "setting": "[3]; 1 week, 40° C./75% RH (open)", "result": 97.9, "unit": "Area %"}, {"measurement": "Form", "setting": "[3]; [10]", "result": "Form D*"}, {"measurement": "Purity/Initial purity (%)", "setting": "[3]; 24 hours, 80° C. (sealed)", "result": 99.5, "unit": "%"}, {"measurement": "Purity (Area %)", "setting": "[3]; 24 hours, 80° C. (sealed)", "result": 99.0, "unit": "Area %"}, {"measurement": "Form", "setting": "[3]; 24 hours, 80° C. (sealed)", "result": "Form D"}, {"measurement": "decrease of HPLC purity", "setting": "[3]", "result": "0.5-1.7 area %"}, {"measurement": "Purity (Area %)", "setting": "[3]; Initial", "result": 99.6, "unit": "Area %"}, {"measurement": "crystal-form change (XRPD)", "setting": "[3]; all three conditions: 80° C. sealed 24 hours, 25° C./60% RH open and 40° C./75% RH open one week", "result": "no crystal-form change"}, {"measurement": "behaviour in high humidity (DVS)", "setting": "[4]; 25° C., over 90% RH", "result": "deliquesced in high humidity"}, {"measurement": "water uptake", "setting": "[4]; 25° C., 95% RH", "result": 24.5, "unit": "%"}, {"measurement": "water uptake", "setting": "[4]; 25° C./80% RH", "result": 4.1, "unit": "%"}]}, {"smiles": "COc1ccc2cc3[n+](cc2c1OC)CCc1cc2c(cc1-3)OCO2.C[C@H](CCC(=O)[O-])[C@H]1CC[C@H]2[C@@H]3[C@@H](O)C[C@@H]4C[C@H](O)CC[C@]4(C)[C@H]3CC[C@]12C", "note": "[Form J, berberine ursodeoxycholate]", "values": [{"measurement": "form conversion", "setting": "[5]", "result": "converts to Form A"}]}, {"smiles": "COc1ccc2cc3[n+](cc2c1OC)CCc1cc2c(cc1-3)OCO2.C[C@H](CCC(=O)[O-])[C@H]1CC[C@H]2[C@@H]3[C@@H](O)C[C@@H]4C[C@H](O)CC[C@]4(C)[C@H]3CC[C@]12C", "note": "[Mixed crystal, berberine ursodeoxycholate]", "values": [{"measurement": "Purity/Initial purity (%)", "setting": "[1]; [6]", "result": 91.7, "unit": "%"}, {"measurement": "Purity (Area %)", "setting": "[1]; [6]", "result": 90.8, "unit": "Area %"}, {"measurement": "Crystal Form", "setting": "[1]; [6]", "result": "Mixed"}, {"measurement": "Purity/Initial purity (%)", "setting": "[1]; [7]", "result": 89.6, "unit": "%"}, {"measurement": "Purity (Area %)", "setting": "[1]; [7]", "result": 88.7, "unit": "Area %"}, {"measurement": "Crystal Form", "setting": "[1]; [7]", "result": "Mixed"}, {"measurement": "Purity (Area %)", "setting": "[1]; Initial", "result": 99.0, "unit": "Area %"}]}]}
